IC50 data for 10 molecules are collected here from US9175011B2, “Morpholino substituted urea or carbamate derivatives as MTOR inhibitors” (CELLZOME LIMITED, priority 2011, dated 2015).

Assay [1] deals with S6RP serine-240/244 phosphorylation. Kind of assay: In vitro phospho-S6 cellular assay (HEK293T/17). Conditions: Homo sapiens; HEK293T/17 cells, 2 hours, pS6RP Ser240/244; read-out: Inhibition values (IC50) pS6. It is filed as cell-based. An excerpt:
Activation of mTOR signaling results in phosphorylation of several downstream targets. In cells, mTOR exists in two different protein complexes. The mTOR Complex-1 (mTORC1) phosphorylates and activates S6 Kinase 1 (S6K1) and S6 Kinase 2 (S6K2) (also known as p70S6K) which then phosphorylate S6 Ribosomal Protein (S6RP) (also known as RPS6)3. S6RP is phosphorylated on serine 235, senile 236, serine 240 and serine 244 by both pS6K1 and pS6K2. The mTOR Complex-2 (mTORC2) phosphorylates AKT on serine 473 which activates the AKT signaling pathway.
The assay measures a test compound's inhibition of S6RP serine-240/244 phosphorylation and inhibition of Akt serine-473 phosphorylation in human embryonic kidney derived HEK293T/17 cells (ATCC CRL-11268).
The HEK293T/17 cell line is maintained in DMEM media (Invitrogen catalogue number 41965-039) supplemented with 10% FCS at 37° C. in a 5% CO2 humidified incubator. Cells are seeded in 96-well plates at 40,000 cells/well (pS6RP S240/244 assay) or 80,000 cells/well (pAkt 5473 assay) in 90 μl growth media (DMEM, 2% FCS). Plates are incubated for 1 hour in a humidified incubator to allow the cells to adhere. Cells are treated with 8 concentrations of test compounds or DMSO alone for controls (final DMSO concentration 0.1%) and incubated at 37° C. for 2 hours. Then 20 μl of 5× concentrated lysis buffer (750 mM NaCl, 100 mM Tris pH7.4, 5 mM ADTA, 5 mM EGTA, 5% Triton X-100) is added, plates are sealed and incubated for 15 minutes at 4° C. with gentle shaking After cell lysis, 25 μl cell lysate is transferred to a MesoScale plate coated with an antibody to pS6RP Ser240/244 (MesoScale Discovery K150DGD-3) or an antibody to pAkt Ser 473 (MesoScale Discovery K151DGD-3). Plates have been blocked before by incubation with 150 μl MesoScale Discovery Blocking Solution-A for 1 hour at room temperature followed by washing with 150 μl 1×Tris wash buffer per well. After the transfer of the cell lysate to the MSD plate, the pS6RP (or pAkt) protein is captured on the coated antibody by incubation at room temperature for 1 hour with gentle shaking. After the capture step the plate is washed three times with 150 μl of 1× Tris wash buffer per well. Then 25 μl detection antibody conjugated with a Sulfo-Tag is added and incubated for 1 hour at room temperature with gentle shaking. Subsequently the antibody solution is removed and the plate is washed 3 times with 150 μl 1×Tris wash buffer per well and 150 μl Read buffer is added. The plates are analysed on a MSD 2400 Plate Reader (MesoScale Discovery). Data analysis is performed using nonlinear regression for a sigmoidal dose-response with a variable slope.

For another assay, the target named is T1, PI3K alpha (PI3Kα) (Homo sapiens, UniProt P42336).
T1 construct: Jurkat cells were homogenized in a Potter S homogenizer in lysis buffer; endogenous in cells; host or cells: Jurkat, clone E6-1 (ATCC TIB-152) lysate
T1 sequence (P42336 whole entry): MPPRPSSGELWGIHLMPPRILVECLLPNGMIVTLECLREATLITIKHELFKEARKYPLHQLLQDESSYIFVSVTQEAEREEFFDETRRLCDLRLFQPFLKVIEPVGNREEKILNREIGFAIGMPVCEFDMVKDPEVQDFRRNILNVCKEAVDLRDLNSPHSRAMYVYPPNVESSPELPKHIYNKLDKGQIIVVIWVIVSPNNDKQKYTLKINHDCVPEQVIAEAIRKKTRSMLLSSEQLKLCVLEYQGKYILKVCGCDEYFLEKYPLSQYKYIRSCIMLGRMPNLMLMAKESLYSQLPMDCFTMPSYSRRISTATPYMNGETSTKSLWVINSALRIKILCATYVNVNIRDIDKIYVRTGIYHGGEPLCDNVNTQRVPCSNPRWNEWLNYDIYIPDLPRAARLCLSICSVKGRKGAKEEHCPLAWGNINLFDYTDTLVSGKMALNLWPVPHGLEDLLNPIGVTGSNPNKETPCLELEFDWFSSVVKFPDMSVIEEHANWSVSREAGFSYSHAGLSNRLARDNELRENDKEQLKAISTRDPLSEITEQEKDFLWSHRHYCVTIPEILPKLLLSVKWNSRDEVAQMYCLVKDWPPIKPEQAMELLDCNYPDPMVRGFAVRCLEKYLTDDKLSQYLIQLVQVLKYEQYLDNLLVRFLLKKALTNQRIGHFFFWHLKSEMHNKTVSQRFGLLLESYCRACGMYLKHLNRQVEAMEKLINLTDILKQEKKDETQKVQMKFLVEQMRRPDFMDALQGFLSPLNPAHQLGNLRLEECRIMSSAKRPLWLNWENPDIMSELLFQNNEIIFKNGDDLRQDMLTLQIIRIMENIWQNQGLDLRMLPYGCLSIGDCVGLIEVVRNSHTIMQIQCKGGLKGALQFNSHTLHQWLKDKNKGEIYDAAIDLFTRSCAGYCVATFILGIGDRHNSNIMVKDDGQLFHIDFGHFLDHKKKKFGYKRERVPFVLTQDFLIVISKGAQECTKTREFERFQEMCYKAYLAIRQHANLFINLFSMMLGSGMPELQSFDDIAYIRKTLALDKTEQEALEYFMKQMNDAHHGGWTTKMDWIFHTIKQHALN
T1 sequence (P27986 whole entry partner): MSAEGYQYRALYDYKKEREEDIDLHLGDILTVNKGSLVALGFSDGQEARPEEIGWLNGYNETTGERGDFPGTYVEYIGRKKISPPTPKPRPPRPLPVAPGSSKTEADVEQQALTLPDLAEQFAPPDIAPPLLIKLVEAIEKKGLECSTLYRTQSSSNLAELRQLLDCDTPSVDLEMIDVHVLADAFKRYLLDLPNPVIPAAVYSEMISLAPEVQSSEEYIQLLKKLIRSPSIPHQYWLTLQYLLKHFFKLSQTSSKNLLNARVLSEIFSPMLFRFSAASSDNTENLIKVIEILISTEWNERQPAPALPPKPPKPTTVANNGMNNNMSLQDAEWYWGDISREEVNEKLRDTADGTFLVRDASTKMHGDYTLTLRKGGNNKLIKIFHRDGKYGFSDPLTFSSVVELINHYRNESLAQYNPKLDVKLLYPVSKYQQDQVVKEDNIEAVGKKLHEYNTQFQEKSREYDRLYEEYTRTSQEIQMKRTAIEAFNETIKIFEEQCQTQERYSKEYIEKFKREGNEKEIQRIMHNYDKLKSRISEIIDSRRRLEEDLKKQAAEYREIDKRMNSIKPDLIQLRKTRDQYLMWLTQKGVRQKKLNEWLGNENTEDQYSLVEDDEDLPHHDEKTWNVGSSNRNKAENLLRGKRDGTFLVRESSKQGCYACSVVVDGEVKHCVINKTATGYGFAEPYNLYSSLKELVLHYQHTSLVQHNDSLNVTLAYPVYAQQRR
Kind of assay: kinobeads assay, PI3K alpha. It counts as binding. Particulars: Jurkat cell lysate, read-out: Inhibition values (IC50) PI3Ka. On the procedure:
(§1) The compounds of the present invention as described were tested in the mTOR kinobeads assay as described below. Briefly, test compounds (at various concentrations) and the affinity matrix (1:1 mixture of beads with immobilized phenylthiazole ligand 1 and beads with immobilized phenylmorpholin-chromen ligand; WO 2009/098021) were added to cell lysate aliquots and allowed to bind to the proteins in the lysate sample. After the incubation time the beads with captured proteins were separated from the lysate. Bound proteins were then eluted and the presence of mTOR, PI3K alpha (PI3Kα), PI3K beta (PI3Kb), PI3K gamma (PI3Kg), PI3K delta (PI3Kd) and DNA-dependent protein kinase (DNA-PK) was detected and quantified using a specific antibody in a dot blot procedure and the Odyssey infrared detection system. Dose response curves for individual kinases were generated and IC50 values calculated. Kinobeads assays for PI3 kinases (WO-A 2008/015013) and for kinase selectivity profiling (WO 2009/098021) have been previously described.
(§2) The affinity matrix (beads with immobilized phenylmorpholin-chromen ligand) was washed three times with 15 ml of 1×DP buffer containing 0.2% NP40 (IGEPAL® CA-630, Sigma, #13021) and then resuspended in 5.5 ml of 1×DP buffer containing 0.2% NP40 (10% beads slurry).
(§3) 5×DP buffer: 250 mM Tris-HCl pH 7.4, 25% Glycerol, 7.5 mM MgCl2, 750 mM NaCl, 5 mM Na3VO4, filter the 5×-lysis buffer through 0.22 μm filter and store in aliquots at −80° C. The 5×DP buffer is diluted to 1×DP buffer containing 1 mM DTT and 25 mM NaF.
(§4) Stock solutions of test compounds were prepared in DMSO. In a 96 well plate 30 μl solution of diluted test compounds at 5 mM in DMSO were prepared. Starting with this solution a 1:3 dilution series (9 steps) was prepared. For control experiments (no test compound) a buffer containing 2% DMSO was used. Compound PI-103 served as a positive control (Calbiochem catalogue number 528100).
(§5) Jurkat cells (ATCC catalogue number TIB-152 Jurkat, clone E6-1) were grown in 1 liter Spinner flasks (Integra Biosciences, #182101) in suspension in RPMI 1640 medium (Invitrogen, #21875-034) supplemented with 10% Fetal Bovine Serum (Invitrogen) at a density between 0.15×10^6 and 1.2×10^6 cells/ml. Cells were harvested by centrifugation, washed once with 1×PBS buffer (Invitrogen, #14190-094) and cell pellets were frozen in liquid nitrogen and subsequently stored at −80° C.
(§6) Jurkat cells were homogenized in a Potter S homogenizer in lysis buffer: 50 mM Tris-HCl, 0.8% NP40, 5% glycerol, 150 mM NaCl, 1.5 mM MgCl2, 25 mM NaF, 1 mM sodium vanadate, 1 mM DTT, pH 7.5. One complete EDTA-free tablet (protease inhibitor cocktail, Roche Diagnostics, 1873580) per 25 ml buffer was added. The material was dounced 10 times using a mechanized POTTER S, transferred to 50 ml falcon tubes, incubated for 30 minutes on ice and spun down for 10 min at 20,000 g at 4° C. (10,000 rpm in Sorvall SLA600, precooled). The supernatant was transferred to an ultracentrifuge (UZ)-polycarbonate tube (Beckmann, 355654) and spun for 1 hour at 100.000 g at 4° C. (33.500 rpm in Ti50.2, precooled). The supernatant was transferred again to a fresh 50 ml falcon tube, the protein concentration was determined by a Bradford assay (BioRad) and samples containing 50 mg of protein per aliquot were prepared. The samples were immediately used for experiments or frozen in liquid nitrogen and stored frozen at −80° C.
(§7) Jurkat cell lysate (approximately 50 mg protein per plate) was thawed in a water bath at room temperature and then kept on ice. To the thawed cell lysate 1×DP 0.8% NP40 buffer containing protease inhibitors (1 tablet for 25 ml buffer; EDTA-free protease inhibitor cocktail; Roche Diagnostics 1873580) was added in order to reach a final protein concentration of 5 mg/ml total protein. The diluted cell lysate was stored on ice. […]

The target in assay [2] is T2, DNA-dependent protein kinase (DNA-PK) (Homo sapiens, UniProt P78527).
T2 construct: Jurkat cells were homogenized in a Potter S homogenizer in lysis buffer; endogenous in cells; host or cells: Jurkat, clone E6-1 (ATCC TIB-152) lysate
Kind of assay: kinobeads assay, DNA-PK. It counts as binding. Particulars: Jurkat cell lysate, read-out: Inhibition values (IC50) DNA-PK. On the procedure: as §1, §2, §3, §4, §5, §6, §7

Another assay has as its target T3, mTOR (Homo sapiens, UniProt P42345).
T3 construct: Jurkat cells were homogenized in a Potter S homogenizer in lysis buffer; endogenous in cells; host or cells: Jurkat, clone E6-1 (ATCC TIB-152) lysate
Kind of assay: mTOR kinobeads assay (Jurkat cell lysate, dot blot detection). It is filed as binding. Particulars: read-out: Inhibition values (IC50) mTor. On the procedure: as §1, §2, §3, §4, §5, §6, §7

Another assay has as its target T4, PI3K gamma (PI3Kg) (Homo sapiens, UniProt P48736).
T4 construct: Jurkat cells were homogenized in a Potter S homogenizer in lysis buffer; endogenous in cells; host or cells: Jurkat, clone E6-1 (ATCC TIB-152) lysate
The experiment in a line: kinobeads assay, PI3K gamma. It is filed as binding. Conditions: Jurkat cell lysate, read-out: Inhibition values (IC50) PI3Kg. On the procedure: as §1, §2, §3, §4, §5, §6, §7

The next assay concerns the target T5, PI3K delta (PI3Kd) (Homo sapiens, UniProt O00329).
T5 construct: Jurkat cells were homogenized in a Potter S homogenizer in lysis buffer; endogenous in cells; host or cells: Jurkat, clone E6-1 (ATCC TIB-152) lysate
Kind of assay: kinobeads assay, PI3K delta. It is filed as binding. Conditions: Jurkat cell lysate, read-out: Inhibition values (IC50) PI3Kd. The procedure:
as §1, §2, §3, §4, §5, §6, §7

The target in a further assay is T6, PI3K beta (PI3Kb) (Homo sapiens, UniProt P42338).
T6 construct: Jurkat cells were homogenized in a Potter S homogenizer in lysis buffer; endogenous in cells; host or cells: Jurkat, clone E6-1 (ATCC TIB-152) lysate
T6 sequence (P42338 whole entry): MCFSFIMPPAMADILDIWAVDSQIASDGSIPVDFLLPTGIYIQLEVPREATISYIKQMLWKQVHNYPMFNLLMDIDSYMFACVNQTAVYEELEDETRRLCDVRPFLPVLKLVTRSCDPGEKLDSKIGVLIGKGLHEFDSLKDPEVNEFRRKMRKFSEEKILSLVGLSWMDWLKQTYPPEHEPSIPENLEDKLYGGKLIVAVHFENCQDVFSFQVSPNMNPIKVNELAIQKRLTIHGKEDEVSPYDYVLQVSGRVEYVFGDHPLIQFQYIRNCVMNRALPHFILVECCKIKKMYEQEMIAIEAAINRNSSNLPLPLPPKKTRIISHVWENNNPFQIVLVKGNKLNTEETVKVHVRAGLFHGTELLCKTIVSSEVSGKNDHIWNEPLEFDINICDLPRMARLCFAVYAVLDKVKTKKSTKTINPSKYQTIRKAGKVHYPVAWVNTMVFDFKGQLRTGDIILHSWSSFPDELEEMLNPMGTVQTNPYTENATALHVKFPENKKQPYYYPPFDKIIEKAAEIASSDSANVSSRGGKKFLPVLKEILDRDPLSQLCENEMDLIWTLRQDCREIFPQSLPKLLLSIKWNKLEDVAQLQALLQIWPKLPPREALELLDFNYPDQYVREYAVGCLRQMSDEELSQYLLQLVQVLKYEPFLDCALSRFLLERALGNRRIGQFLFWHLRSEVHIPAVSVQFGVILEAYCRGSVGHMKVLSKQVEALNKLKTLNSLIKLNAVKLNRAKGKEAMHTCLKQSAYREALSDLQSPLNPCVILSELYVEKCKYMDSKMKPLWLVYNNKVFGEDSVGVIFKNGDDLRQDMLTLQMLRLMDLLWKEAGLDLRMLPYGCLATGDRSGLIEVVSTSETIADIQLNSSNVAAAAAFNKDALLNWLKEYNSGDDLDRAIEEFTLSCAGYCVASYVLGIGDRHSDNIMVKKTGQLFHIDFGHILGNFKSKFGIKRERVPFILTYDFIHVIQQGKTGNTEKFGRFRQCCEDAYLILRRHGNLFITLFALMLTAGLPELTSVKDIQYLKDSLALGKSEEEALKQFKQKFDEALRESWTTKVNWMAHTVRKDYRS
T6 sequence (P27986 whole entry partner): as the sequence (P27986 whole entry partner) above
Kind of assay: kinobeads assay, PI3K beta. It counts as binding. Conditions: Jurkat cell lysate, read-out: Inhibition values (IC50) PI3Kb. The procedure:
as §1, §2, §3, §4, §5, §6, §7

T5 sequence (O00329 whole entry): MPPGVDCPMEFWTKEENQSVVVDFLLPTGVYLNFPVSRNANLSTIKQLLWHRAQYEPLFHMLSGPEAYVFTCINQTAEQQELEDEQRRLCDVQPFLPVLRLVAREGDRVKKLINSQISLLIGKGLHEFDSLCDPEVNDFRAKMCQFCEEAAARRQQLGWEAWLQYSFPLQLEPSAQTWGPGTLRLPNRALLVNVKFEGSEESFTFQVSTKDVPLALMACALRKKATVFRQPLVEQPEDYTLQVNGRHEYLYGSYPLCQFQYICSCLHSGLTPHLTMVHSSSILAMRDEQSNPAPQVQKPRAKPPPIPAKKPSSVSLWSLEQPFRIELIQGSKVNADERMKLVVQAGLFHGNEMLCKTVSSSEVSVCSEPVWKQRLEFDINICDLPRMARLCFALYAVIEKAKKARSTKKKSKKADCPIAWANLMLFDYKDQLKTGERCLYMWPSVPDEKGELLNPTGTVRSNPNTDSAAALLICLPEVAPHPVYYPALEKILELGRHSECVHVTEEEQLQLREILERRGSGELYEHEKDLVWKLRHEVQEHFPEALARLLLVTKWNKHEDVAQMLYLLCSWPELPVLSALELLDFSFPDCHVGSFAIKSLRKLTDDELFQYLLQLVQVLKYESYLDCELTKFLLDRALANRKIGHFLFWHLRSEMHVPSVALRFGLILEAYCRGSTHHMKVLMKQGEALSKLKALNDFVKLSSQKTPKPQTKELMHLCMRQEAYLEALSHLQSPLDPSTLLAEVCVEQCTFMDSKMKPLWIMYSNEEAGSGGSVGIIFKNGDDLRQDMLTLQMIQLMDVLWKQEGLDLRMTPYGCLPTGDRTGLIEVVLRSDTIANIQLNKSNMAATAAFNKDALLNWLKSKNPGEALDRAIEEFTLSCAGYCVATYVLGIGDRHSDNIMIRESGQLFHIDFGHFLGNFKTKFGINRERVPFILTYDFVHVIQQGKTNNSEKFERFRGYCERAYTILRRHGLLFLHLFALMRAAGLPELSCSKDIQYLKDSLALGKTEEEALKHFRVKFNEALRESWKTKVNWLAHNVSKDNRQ
T5 sequence (P27986 whole entry partner): as the sequence (P27986 whole entry partner) above
T4 sequence (P48736 whole entry): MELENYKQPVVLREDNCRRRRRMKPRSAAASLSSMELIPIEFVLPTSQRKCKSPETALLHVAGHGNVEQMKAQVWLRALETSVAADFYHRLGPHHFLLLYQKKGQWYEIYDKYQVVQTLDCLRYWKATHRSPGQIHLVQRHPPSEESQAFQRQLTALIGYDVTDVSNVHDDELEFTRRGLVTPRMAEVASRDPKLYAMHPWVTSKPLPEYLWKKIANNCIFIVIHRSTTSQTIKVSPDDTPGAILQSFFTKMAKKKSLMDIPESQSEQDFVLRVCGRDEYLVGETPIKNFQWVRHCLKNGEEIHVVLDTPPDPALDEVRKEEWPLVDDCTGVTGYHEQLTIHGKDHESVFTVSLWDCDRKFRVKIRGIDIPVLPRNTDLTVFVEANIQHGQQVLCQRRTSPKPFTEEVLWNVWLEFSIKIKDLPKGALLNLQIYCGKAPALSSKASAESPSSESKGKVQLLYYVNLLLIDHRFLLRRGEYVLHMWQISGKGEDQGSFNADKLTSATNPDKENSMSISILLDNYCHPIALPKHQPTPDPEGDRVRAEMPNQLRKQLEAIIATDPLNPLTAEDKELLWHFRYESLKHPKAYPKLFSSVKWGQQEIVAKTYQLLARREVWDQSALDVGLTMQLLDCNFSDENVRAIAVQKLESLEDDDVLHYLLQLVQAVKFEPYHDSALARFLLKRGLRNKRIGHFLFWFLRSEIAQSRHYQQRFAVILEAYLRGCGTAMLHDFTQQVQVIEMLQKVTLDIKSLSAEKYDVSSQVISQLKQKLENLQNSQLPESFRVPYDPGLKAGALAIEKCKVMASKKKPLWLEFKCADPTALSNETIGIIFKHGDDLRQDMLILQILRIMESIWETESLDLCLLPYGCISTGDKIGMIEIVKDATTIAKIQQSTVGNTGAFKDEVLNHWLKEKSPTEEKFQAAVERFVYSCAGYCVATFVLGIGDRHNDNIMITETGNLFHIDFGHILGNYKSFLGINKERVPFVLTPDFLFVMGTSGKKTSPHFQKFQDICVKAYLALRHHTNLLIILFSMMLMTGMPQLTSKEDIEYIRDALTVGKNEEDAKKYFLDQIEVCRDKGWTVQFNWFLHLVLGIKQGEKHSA

A word on the IC50: it is the concentration at which inhibition is half-maximal. In the case of `CNC(=O)Nc1ccc(-c2nc(-c3cc(F)ccc3S(C)(=O)=O)nc(N3CCOC[C@@H]3C)n2)cc1` [Example 2, (S)-1-(4-(4-(5-fluoro-2-(methylsulfonyl)phenyl)-6-(3-methylmorpholino)-1,3,5-triazin-2-yl)phenyl)-3-methylurea], the half-maximal inhibitory concentration (IC50) was below 100 nM in assay [1], above 10 µM at PI3K alpha (PI3Kα), above 10 µM in assay [2] and 100 to 1000 nM on mTOR.
On to `CS(=O)(=O)c1ccccc1-c1nc(-c2ccc(NC(=O)NC3CC3)cc2)nc(N2CCOCC2CO)n1` (centres unmarked) [Example 23, 1-cyclopropyl-3-(4-(4-(3-(hydroxymethyl)morpholino)-6-(2-(methylsulfonyl)phenyl)-1,3,5-triazin-2-yl)phenyl)urea], for which the IC50 on PI3K gamma (PI3Kg) is above 10 µM; on PI3K alpha (PI3Kα), above 10 µM; in assay [2] it was above 10 µM; at PI3K delta (PI3Kd) it was above 10 µM; on PI3K beta (PI3Kb) it was above 10 µM; on mTOR it was 1000 to 10000 nM.
Consider `C[C@H]1COCCN1c1nc(-c2ccc(NC(=O)NC3CCCCC3)cc2)nc(-c2ccccc2S(C)(=O)=O)n1` [Example 28, (S)-1-cyclohexyl-3-(4-(4-(3-methylmorpholino)-6-(2-(methylsulfonyl)phenyl)-1,3,5-triazin-2-yl)phenyl)urea], for which the concentration for half-maximal inhibition (IC50) at PI3K gamma (PI3Kg) is above 10 µM; on PI3K alpha (PI3Kα), above 10 µM; in assay [2] it was above 10 µM; on PI3K delta (PI3Kd), above 10 µM; on PI3K beta (PI3Kb), above 10 µM; at mTOR, 1000 to 10000 nM.
As to `C[C@H]1COCCN1c1nc(-c2ccc(NC(=O)NCCC(N)C(F)(F)F)cc2)nc(-c2ccccc2S(C)(=O)=O)n1` (stereo partly drawn) [Example 37, 1-(3-amino-4,4,4-trifluorobutyl)-3-(4-(4-((S)-3-methylmorpholino)-6-(2-(methylsulfonyl)phenyl)-1,3,5-triazin-2-yl)phenyl)urea], the IC50 on PI3K alpha (PI3Kα) is above 10 µM; at mTOR, 1000 to 10000 nM.
As for `CS(=O)(=O)c1ccc(F)cc1-c1nc(-c2ccc(NC(=O)NC3CC3)cc2)nc(N2CC3CCC(C2)O3)n1` [Example 39, 1-(4-(4-(8-oxa-3-azabicyclo[3.2.1]octan-3-yl)-6-(5-fluoro-2-(methylsulfonyl)phenyl)-1,3,5-triazin-2-yl)phenyl)-3-cyclopropylurea], the values for the IC50 (in assay [1]; on PI3K alpha (PI3Kα); on mTOR) were 100 to 1000 nM, above 10 µM and 1000 to 10000 nM, respectively.
Take `CCNC(=O)Nc1ccc(-c2nc(-c3cccnc3S(C)(=O)=O)nc(N3CCOC[C@@H]3C)n2)cc1` [Example 40, (S)-1-ethyl-3-(4-(4-(3-methylmorpholino)-6-(2-(methylsulfonyl)pyridin-3-yl)-1,3,5-triazin-2-yl)phenyl)ure]: the IC50 in assay [1] is below 100 nM; on PI3K alpha (PI3Kα) it was 1 to 10 µM; in assay [2], above 10 µM; on mTOR, below 100 nM.
On to `CNC(=O)Nc1ccc(-c2nc(-c3cccnc3S(C)(=O)=O)nc(N3CCOC[C@@H]3C)n2)cc1` [Example 41, (S)-1-methyl-3-(4-(4-(3-methylmorpholino)-6-(2-(methylsulfonyl)pyridin-3-yl)-1,3,5-triazin-2-yl)phenyl)urea], for which the IC50 in assay [1] was below 100 nM; on PI3K alpha (PI3Kα) it was 1 to 10 µM; in assay [2] it was above 10 µM; at mTOR, below 100 nM.
`CCNC(=O)Nc1ccc(-c2nc(-c3cc(F)ccc3S(C)(=O)=O)nc(N3CCOC[C@@H]3C)n2)cc1` [Example 42, (S)-1-ethyl-3-(4-(4-(5-fluoro-2-(methylsulfonyl)phenyl)-6-(3-methylmorpholino)-1,3,5-triazin-2-yl)phenyl)urea]: the half-inhibitory concentration (IC50) is below 100 nM in assay [1], above 10 µM at PI3K alpha (PI3Kα), above 10 µM in assay [2] and 100 to 1000 nM on mTOR.
In the case of `C[C@H]1COCCN1c1nc(-c2ccc(NC(=O)NCC(F)F)cc2)nc(-c2cc(F)ccc2S(C)(=O)=O)n1` [Example 43, (S)-1-(2,2-difluoroethyl)-3-(4-(4-(5-fluoro-2-(methylsulfonyl)phenyl)-6-(3-methylmorpholino)-1,3,5-triazin-2-yl)phenyl)urea], the IC50 was below 100 nM in assay [1], above 10 µM on PI3K alpha (PI3Kα), above 10 µM in assay [2] and 100 to 1000 nM at mTOR.
With `C[C@H]1COCCN1c1nc(-c2ccc(NC(=O)NCCF)cc2)nc(-c2cc(F)ccc2S(C)(=O)=O)n1` [Example 44, (S)-1-(4-(4-(5-fluoro-2-(methylsulfonyl)phenyl)-6-(3-methylmorpholino)-1,3,5-triazin-2-yl)phenyl)-3-(2-fluoroethyl)urea], the half-maximal inhibitory concentration (IC50) is below 100 nM in assay [1], above 10 µM at PI3K alpha (PI3Kα), above 10 µM in assay [2] and 100 to 1000 nM at mTOR.
